For orientation: IC50 means the concentration that inhibits the measured activity by half.

The target in this assay is T1, human LPA1 (Homo sapiens, UniProt Q92633).
T1 construct: expressed in transfected cells; host or cells: Chinese hamster ovary (CHO) cells
T1 sequence (Q92633 whole entry): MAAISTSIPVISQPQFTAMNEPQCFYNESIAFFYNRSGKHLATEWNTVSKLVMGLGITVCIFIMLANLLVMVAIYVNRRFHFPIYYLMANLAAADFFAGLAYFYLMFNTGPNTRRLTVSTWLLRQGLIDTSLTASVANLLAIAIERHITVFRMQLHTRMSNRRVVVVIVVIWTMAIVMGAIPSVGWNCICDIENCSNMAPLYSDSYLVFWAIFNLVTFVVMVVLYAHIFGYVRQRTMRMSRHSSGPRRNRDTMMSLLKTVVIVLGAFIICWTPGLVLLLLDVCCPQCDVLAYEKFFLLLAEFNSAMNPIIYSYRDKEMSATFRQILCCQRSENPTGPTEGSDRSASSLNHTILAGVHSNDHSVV
Nature of the assay: LPA1 functional antagonist assay (LPA-induced calcium flux). It counts as cell-based. As to conditions: read-out: hLPA1 IC50. The procedure, abridged:
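CHO cells overexpressing human LPA1, loaded with calcium dye 30 min at 37° C, were preincubated 20 min at room temperature with compound (0.08 nM–5 μM, 0.5% DMSO) in HBSS/20 mM HEPES/0.1% fatty acid-free BSA.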
In general terms: Calcium assays in cells follow changes in intracellular calcium, usually with a dye or a luminescent sensor.
As for `Cc1nc(-c2nnn(C)c2COC(=O)N(C)Cc2ccncc2)ccc1O[C@H]1CCC[C@H](C(=O)O)C1` [Example 122, (1S,3S)-3-((2-methyl-6-(1-methyl-5-(((methyl(pyridin-4-ylmethyl)carbamoyl)oxy)methyl)-1H-1,2,3-triazol-4-yl)pyridin-3-yl)oxy)cyclohexane-1-carboxylic acid], the IC50 amounted to 873 nM.

Regarding `Cc1nc(-c2nnn(C)c2COC(=O)N(C)Cc2cnccn2)ccc1O[C@H]1CCC[C@H](C(=O)O)C1` [Example 123, (1S,3S)-3-((2-methyl-6-(1-methyl-5-(((methyl(pyrazin-2-ylmethyl)carbamoyl)oxy)methyl)-1H-1,2,3-triazol-4-yl)pyridin-3-yl)oxy)cyclohexane-1-carboxylic acid], the IC50 stood at 618 nM. Next, `Cc1nc(-c2nnn(C)c2COC(=O)N(C)Cc2ccnn2C)ccc1O[C@H]1CCC[C@H](C(=O)O)C1` [Example 124, (1S,3S)-3-((2-methyl-6-(1-methyl-5-(((methyl((1-methyl-1H-pyrazol-5-yl)methyl)carbamoyl)oxy)methyl)-1H-1,2,3-triazol-4-yl)pyridin-3-yl)oxy)cyclohexane-1-carboxylic acid]: 982 nM. Next, `Cc1nc(-c2nnn(C)c2COC(=O)N(C)CC2COCCN2)ccc1O[C@H]1CCC[C@H](C(=O)O)C1` (stereo partly drawn) [Example 125, (1S,3S)-3-((2-methyl-6-(1-methyl-5-(((methyl(morpholin-3-ylmethyl)carbamoyl)oxy)methyl)-1H-1,2,3-triazol-4-yl)pyridin-3-yl)oxy)cyclohexane-1-carboxylic acid]: 668 nM; `Cc1nc(-c2nnn(C)c2COC(=O)N(C)CC2CCOC2)ccc1O[C@H]1CCC[C@H](C(=O)O)C1` (stereo partly drawn) [Example 126, (1S,3S)-3-((2-methyl-6-(1-methyl-5-(((methyl((tetrahydrofuran-3-yl)methyl)carbamoyl)oxy)methyl)-1H-1,2,3-triazol-4-yl)pyridin-3-yl)oxy)cyclohexane-1-carboxylic acid]: 346 nM; `CCCCN(CC)C(=O)OCc1c(-c2ccc(O[C@H]3CCC[C@H](C(=O)O)C3)c(C)n2)nnn1C` [Example 127, (1S,3S)-3-((6-(5-(((butyl(ethyl)carbamoyl)oxy)methyl)-1-methyl-1H-1,2,3-triazol-4-yl)-2-methylpyridin-3-yl)oxy)cyclohexane-1-carboxylic acid]: 33 nM. In the case of `CCCN(CC)C(=O)OCc1c(-c2ccc(O[C@H]3CCC[C@H](C(=O)O)C3)c(C)n2)nnn1C` [Example 128, (1S,3S)-3-((6-(5-(((ethyl(propyl)carbamoyl)oxy)methyl)-1-methyl-1H-1,2,3-triazol-4-yl)-2-methylpyridin-3-yl)oxy)cyclohexane-1-carboxylic acid], the IC50 turned out to be 158 nM.

In the case of `Cc1nc(-c2nnn(C)c2COC(=O)N(C)C2(C(C)C)CC2)ccc1O[C@H]1CCC[C@H](C(=O)O)C1` [Example 129, (1S,3S)-3-((6-(5-((((1-isopropylcyclopropyl)(methyl)carbamoyl)oxy)methyl)-1-methyl-1H-1,2,3-triazol-4-yl)-2-methylpyridin-3-yl)oxy)cyclohexane-1-carboxylic acid], the IC50 was determined as 352 nM. Next, `Cc1nc(-c2nnn(C)c2COC(=O)N(C)C2(CC(C)C)CC2)ccc1O[C@H]1CCC[C@H](C(=O)O)C1` [Example 130, (1S,3S)-3-((6-(5-((((1-isobutylcyclopropyl)(methyl)carbamoyl)oxy)methyl)-1-methyl-1H-1,2,3-triazol-4-yl)-2-methylpyridin-3-yl)oxy)cyclohexane-1-carboxylic acid]: 243 nM; `CCC1(N(C)C(=O)OCc2c(-c3ccc(O[C@H]4CCC[C@H](C(=O)O)C4)c(C)n3)nnn2C)CC1` [Example 131, (1S,3S)-3-((6-(5-((((1-ethylcyclopropyl)(methyl)carbamoyl)oxy)methyl)-1-methyl-1H-1,2,3-triazol-4-yl)-2-methylpyridin-3-yl)oxy)cyclohexane-1-carboxylic acid]: 187 nM; `CCCC1(N(C)C(=O)OCc2c(-c3ccc(O[C@H]4CCC[C@H](C(=O)O)C4)c(C)n3)nnn2C)CCC1` [Example 132, (1S,3S)-3-((2-methyl-6-(1-methyl-5-(((methyl(1-propylcyclobutyl)carbamoyl)oxy)methyl)-1H-1,2,3-triazol-4-yl)pyridin-3-yl)oxy)cyclohexane-1-carboxylic acid]: 180 nM. As for `CCC1(N(C)C(=O)OCc2c(-c3ccc(O[C@H]4CCC[C@H](C(=O)O)C4)c(C)n3)nnn2C)CCC1` [Example 133, (1S,3S)-3-((6-(5-((((1-ethylcyclobutyl)(methyl)carbamoyl)oxy)methyl)-1-methyl-1H-1,2,3-triazol-4-yl)-2-methylpyridin-3-yl)oxy)cyclohexane-1-carboxylic acid], the figure is 174 nM; as for `Cc1nc(-c2nnn(C)c2COC(=O)N2CC3(CCC3)C2)ccc1O[C@H]1CCC[C@H](C(=O)O)C1` [Example 134, (1S,3S)-3-((6-(5-(((2-azaspiro[3.3]heptane-2-carbonyl)oxy)methyl)-1-methyl-1H-1,2,3-triazol-4-yl)-2-methylpyridin-3-yl)oxy)cyclohexane-1-carboxylic acid], 76 nM; as for `Cc1nc(-c2nnn(C)c2COC(=O)N2CCC3(CCC3)C2)ccc1O[C@H]1CCC[C@H](C(=O)O)C1` [Example 135, (1S,3S)-3-((6-(5-(((6-azaspiro[3.4]octane-6-carbonyl)oxy)methyl)-1-methyl-1H-1,2,3-triazol-4-yl)-2-methylpyridin-3-yl)oxy)cyclohexane-1-carboxylic acid], 47 nM. For the compound `Cc1nc(-c2nnn(C)c2COC(=O)N(C)C2CCC2)ccc1O[C@H]1CCC[C@H](C(=O)O)C1` [Example 136, (1S,3S)-3-((6-(5-(((cyclobutyl(methyl)carbamoyl)oxy)methyl)-1-methyl-1H-1,2,3-triazol-4-yl)-2-methylpyridin-3-yl)oxy)cyclohexane-1-carboxylic acid], the IC50 is 36 nM.

Regarding `Cc1nc(-c2nnn(C)c2COC(=O)N2CCCC(C)(C)C2)ccc1O[C@H]1CCC[C@H](C(=O)O)C1` [Example 137, (1S,3S)-3-((6-(5-(((3,3-dimethylpiperidine-1-carbonyl)oxy)methyl)-1-methyl-1H-1,2,3-triazol-4-yl)-2-methylpyridin-3-yl)oxy)cyclohexane-1-carboxylic acid], the IC50 came out at 292 nM. Next, `Cc1nc(-c2nnn(C)c2COC(=O)N(C)C(C)C)ccc1O[C@H]1CCC[C@H](C(=O)O)C1` [Example 138]: 98 nM; `Cc1nc(-c2nnn(C)c2COC(=O)N(C)C2CC(F)(F)C2)ccc1O[C@H]1CCC[C@H](C(=O)O)C1` [Example 139, (1S,3S)-3-((6-(5-((((3,3-difluorocyclobutyl)(methyl)carbamoyl)oxy)methyl)-1-methyl-1H-1,2,3-triazol-4-yl)-2-methylpyridin-3-yl)oxy)cyclohexane-1-carboxylic acid]: 70 nM; `Cc1nc(-c2nnn(C)c2COC(=O)N2CCC(C)(C)C2)ccc1O[C@H]1CCC[C@H](C(=O)O)C1` [Example 140, (1S,3S)-3-((6-(5-(((3,3-dimethylpyrrolidine-1-carbonyl)oxy)methyl)-1-methyl-1H-1,2,3-triazol-4-yl)-2-methylpyridin-3-yl)oxy)cyclohexane-1-carboxylic acid]: 148 nM. As for `Cc1nc(-c2nnn(C)c2COC(=O)N(C)C2CC(F)(F)C2)ccc1O[C@H]1CCC[C@@H](C(=O)O)C1` [Example 141, (1R,3S)-3-((6-(5-((((3,3-difluoro-cyclobutyl)(methyl)carbamoyl)oxy)methyl)-1-methyl-1H-1,2,3-triazol-4-yl)-2-methylpyridin-3-yl)oxy)cyclohexane-1-carboxylic acid], the figure is 283 nM; as for `Cc1nc(-c2nnn(C)c2COC(=O)N(C)C2CC2)ccc1O[C@H]1CCC[C@H](C(=O)O)C1` [Example 142, (1S,3S)-3-((6-(5-(((cyclopropyl(methyl)carbamoyl)oxy)methyl)-1-methyl-1H-1,2,3-triazol-4-yl)-2-methylpyridin-3-yl)oxy)cyclohexane-1-carboxylic acid], 252 nM. Next, `Cc1nc(-c2nnn(C)c2COC(=O)N2CCC(F)(F)C2)ccc1O[C@H]1CCC[C@H](C(=O)O)C1` [Example 143, (1S,3S)-3-((6-(5-(((3,3-difluoro-pyrrolidine-1-carbonyl)oxy)methyl)-1-methyl-1H-1,2,3-triazol-4-yl)-2-methylpyridin-3-yl)oxy)cyclohexane-1-carboxylic acid]: 518 nM; `Cc1nc(-c2nnn(C)c2COC(=O)N2CCC3(CC3)C2)ccc1O[C@H]1CCC[C@H](C(=O)O)C1` [Example 144, (1S,3S)-3-((6-(5-(((5-azaspiro[2.4]heptane-5-carbonyl)oxy)methyl)-1-methyl-1H-1,2,3-triazol-4-yl)-2-methylpyridin-3-yl)oxy)cyclohexane-1-carboxylic acid]: 89 nM. For the compound `Cc1nc(-c2nnn(C)c2COC(=O)N(C)CC2CC(F)(F)C2)ccc1O[C@H]1CCC[C@H](C(=O)O)C1` [Example 145, (1S,3S)-3-((6-(5-(((((3,3-difluoro-cyclobutyl)methyl)(methyl)carbamoyl)oxy)methyl)-1-methyl-1H-1,2,3-triazol-4-yl)-2-methylpyridin-3-yl)oxy)cyclohexane-1-carboxylic acid], the IC50 came out at 94 nM. For `Cc1nc(-c2nnn(C)c2COC(=O)N(C)C2CC23CCC3)ccc1O[C@H]1CCC[C@@H](C(=O)O)C1` (stereo partly drawn) [Example 146, (1R,3S)-3-((2-methyl-6-(1-methyl-5-(((methyl(spiro[2.3]hexan-1-yl)carbamoyl)oxy)methyl)-1H-1,2,3-triazol-4-yl)pyridin-3-yl)oxy)cyclohexane-1-carboxylic acid], the half-inhibitory concentration (IC50) is 1820 nM. Next, `Cc1nc(-c2nnn(C)c2COC(=O)N2CC3CCC2C3)ccc1O[C@H]1CCC[C@H](C(=O)O)C1` (stereo partly drawn) [Example 148, (1S,3S)-3-((6-(5-(((-2-azabicyclo[2.2.1]heptane-2-carbonyl)oxy)methyl)-1-methyl-1H-1,2,3-triazol-4-yl)-2-methylpyridin-3-yl)oxy)cyclohexane-1-carboxylic acid]: 325 nM.

Values taken from patent US10576062B2, “Carbamoyloxymethyl triazole cyclohexyl acids as LPA antagonists” (Bristol-Myers Squibb Company, priority 2016, dated 2020).
